{"source": "patent US8435964B2", "about": "“Ectonucleotidase pyrophosphate/phosphodiestrase-1 (ENPP-1) as a target for the treatment of aortic valve stenosis and cardiovascular calcification” (Universite Laval, priority 2009, dated 2013)", "key": {"WVK rat model": {"tested_on": "WVK rat model", "test": "Warfarin and vitamin K (WVK) rat model of aortic calcification", "type": "in vivo", "method": "Animal experiments were approved by the Animal Care and Use Committee of Laval and Montreal Universities. Male Wistar rats (initial weight 200 g) were obtained from Charles River Breeding Laboratories (St Constant, Qc, Canada). The animals received warfarin (20 mg/kg/day in drinking water) and vitamin K (phylloquinone) (15 mg/kg/day subcutaneous injection) (WVK) (n=10) at day 1, 3, 5, 7, 14, 21, and 28. Dosages were adjusted every second day. Controls consisted of age-matched untreated rats (n=7). In two other groups of rats, ARL 67156 was administered at 0.55 μg/kg/day (n=10) and 1.1 μg/kg/day (n=10) during 28 days with osmotic pumps implanted subcutaneously. At day 28, animals were anesthetized with pentobarbital (65 mg/kg) for blood plasma sampling and the harvesting of aorta and heart. Segments of the aorta were frozen at −80° C. for the determination of calcium amount. The heart with the aortic root and valve was fixed in formaldehyde 10% for histological processing and immunohistology. […] Morphometric analyses of the aortic root (at the level of aortic valve and sinuses of Valsalva) were carried out using the Image-Pro Plus (MediaCybernetics, Bethesda, Md., USA) image analysis software to quantify the calcified areas (with the von Kossa staining) normalized to the total surface area of the section."}, "ENPP-1": {"molecular_target": "T1, ENPP-1 (Homo sapiens, UniProt P22413)", "T1 construct": "endogenous in cells; host or cells: primary human valve interstitial cells (VICs)", "T1 sequence (P22413 1-925)": "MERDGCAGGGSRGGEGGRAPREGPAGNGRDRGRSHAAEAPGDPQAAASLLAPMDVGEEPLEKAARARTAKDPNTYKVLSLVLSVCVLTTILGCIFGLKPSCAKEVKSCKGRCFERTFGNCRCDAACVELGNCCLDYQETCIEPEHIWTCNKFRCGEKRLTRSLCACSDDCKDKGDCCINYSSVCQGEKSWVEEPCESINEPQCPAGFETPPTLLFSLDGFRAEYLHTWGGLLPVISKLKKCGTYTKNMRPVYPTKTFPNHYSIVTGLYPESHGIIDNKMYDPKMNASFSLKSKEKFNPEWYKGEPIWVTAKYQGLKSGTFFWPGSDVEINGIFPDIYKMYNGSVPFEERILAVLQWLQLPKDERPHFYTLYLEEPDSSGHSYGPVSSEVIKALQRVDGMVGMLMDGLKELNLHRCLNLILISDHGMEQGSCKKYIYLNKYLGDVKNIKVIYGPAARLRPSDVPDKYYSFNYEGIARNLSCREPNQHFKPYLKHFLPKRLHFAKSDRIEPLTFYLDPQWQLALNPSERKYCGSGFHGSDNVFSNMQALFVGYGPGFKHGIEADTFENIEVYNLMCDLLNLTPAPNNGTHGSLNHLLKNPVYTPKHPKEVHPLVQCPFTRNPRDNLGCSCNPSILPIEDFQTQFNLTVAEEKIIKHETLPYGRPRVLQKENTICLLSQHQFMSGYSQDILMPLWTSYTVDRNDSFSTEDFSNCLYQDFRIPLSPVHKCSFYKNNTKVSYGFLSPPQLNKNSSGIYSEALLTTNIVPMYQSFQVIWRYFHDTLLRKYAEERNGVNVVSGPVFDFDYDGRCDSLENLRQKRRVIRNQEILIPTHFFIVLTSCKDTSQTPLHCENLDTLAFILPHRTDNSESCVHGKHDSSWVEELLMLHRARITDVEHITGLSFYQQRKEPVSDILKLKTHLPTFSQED", "test": "Phosphodiesterase activity in valve interstitial cells exposed to calcifying medium", "type": "cell-based", "conditions": "VICs, calcifying medium (NaH2PO4 2 mM), 14 days; ARL 67156 10 μM and 25 μM", "method": "Phosphodiesterase activity was measured using the substrate p-nitrophenyl phenylphosphonate (PNPP-PP) (Sigma, Oakville, Ont, Canada). Proteins were isolated from normal control valves (n=14), AS valves (n=18) or valve interstitial cells (VICs) and used for enzyme activity. Cells were harvested with trypsine-EDTA (Invitrogen, Toronto, Ont, Canada), washed 2 times in washing buffer (NaCl 0.15M, TRIS-HCl pH 8.1, 20 mM, CaCl2 1 mM) and resuspended in assay buffer (NaCl 0.15M, TRIS-HCl pH 8.1, 20 mM, CaCl2 0.5 mM, 1 mM p-nitrophenyl phenylphosphonate). The same amount of proteins isolated from tissues were washed twice in washing buffer and resuspended in 600 μl of assay buffer. […] Absorbance was measured at 400 nm. Results were calculated using a molar absorption coefficient for p-nitrophenol of 18320 M^−1 cm^−1. […]\nHuman valve interstitial cells (VICs) were isolated by collagenase digestion from explanted hearts during transplant procedures. […] For calcium quantification, cells were decalcified with 0.6 M HCl for 24 h. The calcium content of the HCl supernatants was determined using the o-cresolphthalein complexone method. […] The protein content was determined using Biorad® assay kit (Biorad, Mississauga, Ont, Canada). […]"}, "[1]": {"tested_on": "Human valve interstitial cells (VICs)", "test": "In vitro calcification of valve interstitial cells (calcium content, o-cresolphthalein complexone method)", "type": "cell-based", "conditions": "day 14 after treatment with calcifying medium; ARL 67156 10 μM and 25 μM", "method": "(§1) Human valve interstitial cells (VICs) were isolated by collagenase digestion from explanted hearts during transplant procedures. Cells were cultured in DMEM containing 10% FBS, 2 mM L-glutamine and 1 mM sodium pyruvate (Invitrogen, Toronto, Ont, Canada). Cells were seeded in 12 well plates (2×10^4 cells/well). To provoke calcification, cells were incubated with a pro-calcifying medium containing: DMEM+5% FBS, 10^−7 M insulin, 50 μg/ml ascorbic acid and NaH2PO4 at 2 mM (in some experiments where it is specified NaH2PO4 was used at 1, 2 and 5 mM). […] In some experiments ARL 67156 (a competitive inhibitor of ENPP-1) (10 μM and 25 μM) was added to the growth medium Studies were conducted at day 0, 7, 14 in triplicate. For calcium quantification, cells were decalcified with 0.6 M HCl for 24 h. The calcium content of the HCl supernatants was determined using the o-cresolphthalein complexone method. After decalcification, cells were washed with PBS and solubilised with 0.1 N NaOH/0.1% SDS. The protein content was determined using Biorad® assay kit (Biorad, Mississauga, Ont, Canada). Cells calcium content was normalized to protein content."}, "alkaline phosphatase": {"tested_on": "alkaline phosphatase", "test": "Alkaline phosphatase activity in valve interstitial cells exposed to calcifying medium", "type": "cell-based, human", "conditions": "VICs after exposition to calcifying medium", "method": "as §1"}}, "note": "Entries after “also recorded” stand apart in the source; their conditions may differ."}
{"compound": "CCN(CC)c1ncnc2c1ncn2C1OC(COP(=O)(O)OP(=O)(O)C(Br)(Br)P(=O)(O)O)[C@@H](O)[C@H]1O", "note": "(some centres unmarked) [ARL 67156]", "values": [{"measurement": "calcification of the aortic root at the level of aortic cusp", "setting": "WVK rat model; rat treated with 1.1 μg/kg/d, von Kossa histology (FIG. 5F)", "value": "without calcification"}, {"measurement": "calcification of the aortic valve cusps", "setting": "WVK rat model; rats under WVK regimen, 28 days, 0.55 μg/kg/d and 1.1 μg/kg/d by osmotic pump", "value": "prevented the development of aortic valve calcifications; also recorded: not detected"}, {"measurement": "phosphodiesterase activity", "setting": "ENPP-1", "value": "dose-dependently decreased; also recorded: significantly reduced"}, {"measurement": "calcification of isolated VICs", "setting": "[1]", "value": "significantly reduced; also recorded: dose-dependently reduced"}, {"measurement": "alkaline phosphatase (ALP) activity", "setting": "alkaline phosphatase", "value": "did not affect; also recorded: not affected"}]}
